Measurements taken from ChEMBL document CHEMBL1201862, “PubChem BioAssay data set” (2004).
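Where inhibition never reached the appropriate level, the endpoint shown equals the highest concentration tested. Otherwise, values were interpolated linearly from a five-concentration, 48-hour dose response in 96-well plates. GI50 marks 50% less growth.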 The source made the active and inactive calls. Rule as the data show it: active = GI50 up to about 1.1 µM and inactive = higher.

Assays:
Test in all cases: NCI-60 cell line screen, 48 h
[1] = system: TK-10
[2] = system: SK-MEL-28
[3] = system: RPMI-8226
[4] = system: IGROV-1
[5] = system: NCI/ADR-RES
[6] = system: HOP-62
[7] = system: HOP-92
[8] = system: A498
[9] = system: SW-620
[10] = system: MOLT-4
[11] = system: Malme-3M
[12] = system: OVCAR-4
[13] = system: SK-MEL-5
[14] = system: SF-295
[15] = system: OVCAR-5
[16] = system: U-251
[17] = system: SF-268
[18] = system: EKVX
[19] = system: UO-31
[20] = system: HCT-116

Measured: GI50

COc1ccc2c(c1)CCC(CN1CCN(CCOC(c3ccccc3)c3ccccc3)CC1)C2O (centres undefined)
inactive: [1] 14.1 µM | [2] 16.5 µM | [3] 11 µM | [4] 15.4 µM | [5] 13.8 µM | [6] 19 µM | [7] 14.4 µM | [8] 10.5 µM | [9] 20 µM | [10] 11.8 µM | [11] 17.5 µM | [12] 15.9 µM | [13] 8.3 µM | [14] 18.9 µM | [15] 16.6 µM | [16] 14.8 µM | [17] 16.6 µM | [18] 11.1 µM | [19] 15.4 µM | [20] 12.2 µM

Cc1[nH]nc(-c2ccon2)c1N=O
inactive: [1] 18.7 µM | [2] 20.2 µM | [3] 3.78 µM | [4] 23 µM | [5] 19.8 µM | [6] 21 µM | [7] 14.2 µM | [8] > 100 µM | [9] 21.2 µM | [10] 2 µM | [11] 20.7 µM | [12] 17.5 µM | [13] 18.2 µM | [14] 18.7 µM | [15] 19.3 µM | [16] 17.9 µM | [17] 20 µM | [18] 16.7 µM | [19] 19.8 µM | [20] 23.1 µM

COc1ccc(/C=N/n2cnc3[nH]c(C)c(Cc4ccccc4)c3c2=N)cc1
inactive: [1] > 100 µM | [2] > 100 µM | [3] 34.8 µM | [4] 39.7 µM | [5] > 100 µM | [6] > 100 µM | [7] 29.2 µM | [8] 67.8 µM | [9] 57.1 µM | [10] 52.1 µM | [11] > 100 µM | [12] > 100 µM | [13] > 100 µM | [14] 53.3 µM | [15] > 100 µM | [16] 86.1 µM | [17] 72.9 µM | [18] > 100 µM | [19] > 100 µM | [20] > 100 µM

CC(C)(C)c1cc(C(=O)/C=C/c2ccc(C(=O)O)cc2)cc(C(C)(C)C)c1
inactive: [1] 3.37 µM | [2] 2.38 µM | [3] 1.16 µM | [4] 3.8 µM | [5] 2.42 µM | [6] 2.32 µM | [7] 6.68 µM | [8] 1.92 µM | [9] 3.42 µM | [10] 2.37 µM | [11] 1.42 µM | [12] 6.14 µM | [13] 3.99 µM | [14] 2.58 µM | [15] 4.9 µM | [16] 3.13 µM | [17] 2.18 µM | [18] 3.19 µM | [19] 5.47 µM | [20] 2.73 µM

COCCOc1nc(-c2ccccc2)nc2ccccc12
inactive: [1] 36 µM | [2] 53.5 µM | [3] 15.7 µM | [4] 98.2 µM | [5] 32.6 µM | [6] 22.1 µM | [7] 27.6 µM | [8] 15 µM | [9] 34 µM | [10] 20.6 µM | [11] 51.1 µM | [12] 37.3 µM | [13] 25.8 µM | [14] 43.1 µM | [15] > 100 µM | [16] 45.8 µM | [17] 27.7 µM | [18] 55.8 µM | [19] 38.6 µM | [20] 46.1 µM

Nc1c(/N=N/c2ccc(-c3ccc(/N=N/c4c(O)ccc5cc(S(=O)(=O)O)cc(S(=O)(=O)O)c45)cc3)cc2)c(S(=O)(=O)O)cc2cc(S(=O)(=O)O)c(/N=N/c3ccccc3)c(O)c12
inactive: [2] > 100 µM | [3] > 100 µM | [4] > 100 µM | [5] > 100 µM | [6] > 100 µM | [7] > 69.7 µM | [8] > 100 µM | [9] > 100 µM | [10] > 100 µM | [11] > 100 µM | [12] > 100 µM | [13] > 100 µM | [14] > 77.1 µM | [15] > 100 µM | [16] > 100 µM | [17] > 100 µM | [18] > 100 µM | [19] 6.84 µM | [20] > 100 µM
